In patent publication EP4745145A1, “SALT OF THIAZOLOPYRAZINE COMPOUND OR CRYSTAL THEREOF AND USE THEREOF” (Simcere Zaiming Pharmaceutical Co., Ltd., priority 2023, dated 2025):
Structures can show the parent of a compound that is named as a salt.

Assays:
Format in all cases: physicochemical
[1] = Influencing factor experiment (stability under high temperature, high humidity, light)
Description: (§1) Each test sample was placed under high temperature (60 °C), high humidity (92.5%), light (7000 lux), or accelerated (40 °C, 75% RH) conditions using a 2 mL screw-thread sample vial in an open state; each sample was placed with packaging (2 layers of medicinal low-density polyethylene bags + 1 layer of polyester/aluminum/polyethylene medicinal composite film bag) under light (7000 lux) or accelerated (40 °C, 75% RH) conditions to investigate the stability of the sample.

[2] = Accelerated experiment (stability at 40 °C, 75% RH)
Description: as §1

[3] = Solubility experiment in water
Description: The thermodynamic solubility of the compounds of the present disclosure was determined using the following test method.
The thermodynamic solubility of the compounds of the present disclosure in water was investigated. Water (1000 µL) was measured and placed into a 1 mL transparent glass tube with a stopper. An appropriate amount of each sample was weighed and added to saturate the solution, and the solution was shaken to disperse the sample. […] Then, an appropriate amount of the sample was taken, filtered through a microporous filter membrane, and subjected to content determination using high-performance liquid chromatography with an external standard method. The thermodynamic solubility of each compound in water (µg/mL) was calculated.

[4] = Hygroscopicity experiment (dynamic vapor sorption); details: 80.0% RH, 25 °C
Description: Test conditions for the instruments used in the experiments of the present disclosure: • 1. X-ray powder diffraction • Instrument model: Bruker D8 Focus • X-ray light source: Cu Kα • Kα1 (Å): 1.54060; • Wavelength λ (Å): 1.54060 • Slit (°): 2.5 • Scan mode: θ/2θ, scan range: 3-40° (2θ angle) • Retention time (s): 0.12 • Scanning step length (° 2θ): 0.01 • Voltage: 40 kV • Current: 40 mA • 2. Differential scanning calorimeter • Instrument model: Discovery DSC 2500 • Purging gas: nitrogen • Sample tray: aluminum tray, non-sealing gland • Method: linear heating • Ramping rate: 10 °C/min • Temperature range: 30 °C-400 °C • 3. Thermogravimetric analyzer • Instrument model: Discovery TA 55 • Purging gas: nitrogen • Sample tray: platinum, open • Method: linear heating • Ramping rate: Ramp from a starting temperature of 30 °C to 400 °C at a rate of 10 °C/min • Temperature range: 30 °C-400 °C • 4. Dynamic vapor sorption instrument • Instrument model: DVS Intrinsic. • DVS parameters: • Temperature: 25 °C; • Equilibrium: dm/dt = 0.002%/min • RH (%) test gradient: 10% • Range of RH (%) test gradient: 0%-90%-0%. • 5. Ion chromatography • Instrument model: Thermo Fisher Integrion, No. IC001 • Test method: Conductivity […] • Separation column: Dionex IonpacTM CS12 Guard 4 × 250 mm • Eluent: 20 mM methanesulfonic acid solution • Flow rate: 1.0 mL/min
• (1) Experimental instrument: dynamic vapor sorption DVS Intrinsic. • (2) Experimental conditions: Each test sample was taken and placed in a DVS sample pan for testing. • (3) DVS parameters: • Temperature: 25 °C; • Equilibrium: dm/dt = 0.002%/min • RH (%) test gradient: 10% • Range of RH (%) test gradient: 0%-90%-0%.

[5] = Light (7000 lux, packaged), 10d
[6] = Light (7000 lux, packaged), 32d
[7] = Accelerated (40 °C), packaged, 14d
[8] = Accelerated (40 °C), packaged, 32d

COc1ccc(Cl)cc1-c1cc(C)ncc1C(=O)Nc1nc2ncc(-c3ccc(C#N)cc3)nc2s1 [Crystal form A]
Purity ([1]; 0 h, 0d): 99.21%
Total impurities ([1]; 0 h, 0d): 0.79%
Purity ([1]; High humidity (92.5% RH), 7d): 99.26%
Total impurities ([1]; High humidity (92.5% RH), 7d): 0.74%
Purity ([1]; High humidity (92.5% RH), 14d): 99.20%
Total impurities ([1]; High humidity (92.5% RH), 14d): 0.80%
Purity ([1]; High humidity (92.5% RH), 32d): 99.21%
Total impurities ([1]; High humidity (92.5% RH), 32d): 0.79%
Purity ([1]; High temperature (60 °C), 7d): 99.23%
Total impurities ([1]; High temperature (60 °C), 7d): 0.77%
Purity ([1]; High temperature (60 °C), 14d): 99.17%
Total impurities ([1]; High temperature (60 °C), 14d): 0.83%
Purity ([1]; High temperature (60 °C), 32d): 99.15%
Total impurities ([1]; High temperature (60 °C), 32d): 0.85%
Purity ([1]; Light (7000 lux, open), 7d): 99.11%
Total impurities ([1]; Light (7000 lux, open), 7d): 0.89%
Purity ([1]; Light (7000 lux, open), 14d): 98.75%
Total impurities ([1]; Light (7000 lux, open), 14d): 1.25%
Purity ([1]; Light (7000 lux, open), 32d): 98.24%
Total impurities ([1]; Light (7000 lux, open), 32d): 1.76%
Purity [1, 5]: 99.19%
Total impurities [1, 5]: 0.81%
Purity [1, 6]: 99.22%
Total impurities [1, 6]: 0.78%
Purity ([2]; 0 h, 0d): 99.21%
Total impurities ([2]; 0 h, 0d): 0.79%
Purity ([2]; Accelerated (40 °C), open, 7d): 99.21%
Total impurities ([2]; Accelerated (40 °C), open, 7d): 0.79%
Purity ([2]; Accelerated (40 °C), open, 14d): 99.17%
Total impurities ([2]; Accelerated (40 °C), open, 14d): 0.83%
Purity ([2]; Accelerated (40 °C), open, 32d): 99.18%
Total impurities ([2]; Accelerated (40 °C), open, 32d): 0.82%
Purity [2, 7]: 99.19%
Total impurities [2, 7]: 0.81%
Purity [2, 8]: 99.19%
Total impurities [2, 8]: 0.81%
Dynamic solubility in water ([3]; 1h, 60 min): 2081.71 µg/mL
Dynamic solubility in water ([3]; 2h, 120 min): 1590.35 µg/mL
Dynamic solubility in water ([3]; 4h, 240 min): 1441.04 µg/mL
Dynamic solubility in water ([3]; 24h, 1440 min): 27.01 µg/mL
weight gain due to moisture absorption [4]: 1.6%

COc1ccc(Cl)cc1-c1cc(C)ncc1C(=O)Nc1nc2ncc(-c3ccc(C#N)cc3)nc2s1 [Amorphous form of sodium salt of compound of formula I]
Purity ([1]; 0 h, 0d): 99.31%
Total impurities ([1]; 0 h, 0d): 0.52%
Purity ([1]; High humidity (92.5% RH), 11d): 98.89%
Total impurities ([1]; High humidity (92.5% RH), 11d): 1.11%
Purity ([1]; High temperature (60 °C), 11d): 99.23%
Total impurities ([1]; High temperature (60 °C), 11d): 0.77%
Purity ([1]; Light (7000 lux, open), 7d): 97.57%
Total impurities ([1]; Light (7000 lux, open), 7d): 2.43%
Purity ([2]; 0 h, 0d): 99.31%
Total impurities ([2]; 0 h, 0d): 0.52%
Purity ([2]; Accelerated (40 °C), open, 7d): 99.33%
Total impurities ([2]; Accelerated (40 °C), open, 7d): 0.67%
Dynamic solubility in water ([3]; 1h, 60 min): 1.57 µg/mL
Dynamic solubility in water ([3]; 2h, 120 min): 4.37 µg/mL
Dynamic solubility in water ([3]; 4h, 240 min): 44.68 µg/mL
Dynamic solubility in water ([3]; 24h, 1440 min): 0.72 µg/mL

COc1ccc(Cl)cc1-c1cc(C)ncc1C(=O)Nc1nc2ncc(-c3ccc(C#N)cc3)nc2s1 [Crystal form C]
Purity ([1]; 0 h, 0d): 99.2%
Total impurities ([1]; 0 h, 0d): 0.80%
Purity ([1]; High humidity (92.5% RH), 7d): 99.21%
Total impurities ([1]; High humidity (92.5% RH), 7d): 0.79%
Purity ([1]; High humidity (92.5% RH), 14d): 99.20%
Total impurities ([1]; High humidity (92.5% RH), 14d): 0.80%
Purity ([1]; High temperature (60 °C), 7d): 99.26%
Total impurities ([1]; High temperature (60 °C), 7d): 0.74%
Purity ([1]; High temperature (60 °C), 14d): 99.22%
Total impurities ([1]; High temperature (60 °C), 14d): 0.78%
Purity ([1]; Light (7000 lux, open), 7d): 98.29%
Total impurities ([1]; Light (7000 lux, open), 7d): 1.71%
Purity ([1]; Light (7000 lux, open), 14d): 97.16%
Total impurities ([1]; Light (7000 lux, open), 14d): 2.84%
Purity ([2]; 0 h, 0d): 99.2%
Total impurities ([2]; 0 h, 0d): 0.8%
Purity ([2]; Accelerated (40 °C), open, 7d): 99.20%
Total impurities ([2]; Accelerated (40 °C), open, 7d): 0.80%
Purity ([2]; Accelerated (40 °C), open, 14d): 99.21%
Total impurities ([2]; Accelerated (40 °C), open, 14d): 0.79%
Dynamic solubility in water ([3]; 1h, 60 min): 857.52 µg/mL
Dynamic solubility in water ([3]; 4h, 240 min): 1337.74 µg/mL
Dynamic solubility in water ([3]; 24h, 1440 min): 108.15 µg/mL
weight gain due to moisture absorption [4]: -4.3%
